Data taken from paper PMC6090556 (Neuron, 2018).
Where two headings read alike, the source gives them in different places. Marks after values point to notes of the source that are not given here. Values belong to the molecule of their own block, whether it stands above or below them.

Experiments:
GluN1/GluN2A = GluN1/GluN2A (Rattus norvegicus, UniProt P35439+Q00959); conditions: 5 ms pulse of 1 mM glutamate, continuous 100 μM glycine, n=6
GluN1/GluN2C = GluN1/GluN2C (Rattus norvegicus, UniProt P35439+Q00961); conditions: 5 ms pulse of 1 mM glutamate, continuous 100 μM glycine, n=8
[1] = tested on: NMDARs in cultured cortical neurons; format: cell-based, rat; conditions: 400 μM DL-APV
[2] = target: NMDARs in cultured cortical neurons (Rattus norvegicus, UniProt P35439+Q00960); format: cell-based; conditions: spermine potentiation of native GluN2B-mediated current responses, n=3
[3] = target: GluN1/GluN2AC1/GluN2CC2(NK) (Rattus norvegicus, UniProt P35439+Q00959+Q00961, N612K); test: Two-electrode voltage-clamp recordings in Xenopus oocytes; format: cell-based; conditions: for GluN2AC1/GluN2CC2(NK) fitted response in saturating Zn2+ as percent of control: mean ± SEM; for IC50: read-out: GluN2AC1/GluN2CC2(NK) EC50 (95% CI), IC50 in text, Zn2+ inhibition
Sequence of GluN1/GluN2AC1/GluN2CC2(NK) (Q00961 20-836 N612K, other chains not shown): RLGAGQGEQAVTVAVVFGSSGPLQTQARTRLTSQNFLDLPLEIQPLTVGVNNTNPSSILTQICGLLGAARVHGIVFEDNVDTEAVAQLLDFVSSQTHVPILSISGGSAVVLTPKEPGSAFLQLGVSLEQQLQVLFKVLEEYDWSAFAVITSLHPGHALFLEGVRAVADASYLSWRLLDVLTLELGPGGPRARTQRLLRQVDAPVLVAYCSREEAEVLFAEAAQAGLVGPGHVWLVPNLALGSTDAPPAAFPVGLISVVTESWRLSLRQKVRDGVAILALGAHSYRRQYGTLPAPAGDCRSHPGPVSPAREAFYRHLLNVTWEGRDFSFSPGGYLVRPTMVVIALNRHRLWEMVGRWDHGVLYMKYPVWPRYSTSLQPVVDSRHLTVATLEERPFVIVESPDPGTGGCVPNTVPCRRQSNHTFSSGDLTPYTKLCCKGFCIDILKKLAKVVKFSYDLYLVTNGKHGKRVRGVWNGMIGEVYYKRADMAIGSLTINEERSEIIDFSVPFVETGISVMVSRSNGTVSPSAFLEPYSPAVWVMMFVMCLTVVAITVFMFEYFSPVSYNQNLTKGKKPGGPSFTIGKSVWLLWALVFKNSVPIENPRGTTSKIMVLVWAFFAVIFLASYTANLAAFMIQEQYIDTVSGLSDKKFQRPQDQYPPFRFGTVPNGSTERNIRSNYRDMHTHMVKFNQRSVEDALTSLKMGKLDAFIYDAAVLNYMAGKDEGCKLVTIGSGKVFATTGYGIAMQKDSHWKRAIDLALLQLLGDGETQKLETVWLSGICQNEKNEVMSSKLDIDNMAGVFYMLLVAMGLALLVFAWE
Sequence of GluN1/GluN2AC1/GluN2CC2(NK) (Q00959 23-1464, other chains not shown): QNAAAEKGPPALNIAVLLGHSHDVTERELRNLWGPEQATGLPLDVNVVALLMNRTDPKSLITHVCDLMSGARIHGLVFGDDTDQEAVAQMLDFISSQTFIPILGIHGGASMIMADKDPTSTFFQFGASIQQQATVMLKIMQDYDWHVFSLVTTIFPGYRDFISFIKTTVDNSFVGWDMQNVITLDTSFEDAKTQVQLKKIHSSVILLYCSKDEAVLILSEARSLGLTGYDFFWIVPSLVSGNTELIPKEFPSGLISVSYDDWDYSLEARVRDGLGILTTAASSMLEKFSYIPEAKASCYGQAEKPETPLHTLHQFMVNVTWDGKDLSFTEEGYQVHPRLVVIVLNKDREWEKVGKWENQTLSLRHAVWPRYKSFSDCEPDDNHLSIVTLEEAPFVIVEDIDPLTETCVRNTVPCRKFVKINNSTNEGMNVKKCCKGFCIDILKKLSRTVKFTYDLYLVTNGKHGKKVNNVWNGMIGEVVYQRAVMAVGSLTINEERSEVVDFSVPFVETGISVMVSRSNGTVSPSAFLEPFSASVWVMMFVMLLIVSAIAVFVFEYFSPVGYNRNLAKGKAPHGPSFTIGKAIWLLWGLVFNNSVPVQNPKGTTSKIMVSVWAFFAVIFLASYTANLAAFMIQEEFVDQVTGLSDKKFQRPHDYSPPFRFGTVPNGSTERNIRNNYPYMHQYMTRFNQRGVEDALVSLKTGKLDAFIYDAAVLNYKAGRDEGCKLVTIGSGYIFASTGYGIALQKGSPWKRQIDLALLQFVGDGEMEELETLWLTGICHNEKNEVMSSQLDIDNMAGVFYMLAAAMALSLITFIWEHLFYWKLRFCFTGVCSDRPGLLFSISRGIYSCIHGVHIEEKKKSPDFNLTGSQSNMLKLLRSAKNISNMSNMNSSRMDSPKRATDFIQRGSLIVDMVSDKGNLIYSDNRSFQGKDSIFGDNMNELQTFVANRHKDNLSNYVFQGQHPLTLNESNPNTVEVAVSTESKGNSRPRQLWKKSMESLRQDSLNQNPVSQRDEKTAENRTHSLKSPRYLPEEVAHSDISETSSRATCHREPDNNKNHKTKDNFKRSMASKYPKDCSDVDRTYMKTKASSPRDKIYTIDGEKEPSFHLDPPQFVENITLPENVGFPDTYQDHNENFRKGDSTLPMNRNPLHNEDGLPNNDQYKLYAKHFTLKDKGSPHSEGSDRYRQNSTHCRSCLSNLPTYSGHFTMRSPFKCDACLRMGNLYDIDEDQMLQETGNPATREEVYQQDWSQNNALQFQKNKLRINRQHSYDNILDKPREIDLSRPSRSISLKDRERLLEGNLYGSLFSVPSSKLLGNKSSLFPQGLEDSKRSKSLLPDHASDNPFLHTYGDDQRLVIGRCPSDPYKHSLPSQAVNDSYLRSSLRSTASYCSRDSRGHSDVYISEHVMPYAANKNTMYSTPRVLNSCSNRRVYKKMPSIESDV

GluN1/GluN2AC1/GluN2AC2 = GluN1/GluN2AC1/GluN2AC2 (Rattus norvegicus, UniProt P35439+Q00959); test: as above
[4] = target: NMDARs in cerebellar granule cells, wild type mice (Mus musculus, UniProt P35436+P35438+Q01098); format: cell-based
Sequence of NMDARs in cerebellar granule cells, wild type mice (P35436 23-1464, other chains not shown): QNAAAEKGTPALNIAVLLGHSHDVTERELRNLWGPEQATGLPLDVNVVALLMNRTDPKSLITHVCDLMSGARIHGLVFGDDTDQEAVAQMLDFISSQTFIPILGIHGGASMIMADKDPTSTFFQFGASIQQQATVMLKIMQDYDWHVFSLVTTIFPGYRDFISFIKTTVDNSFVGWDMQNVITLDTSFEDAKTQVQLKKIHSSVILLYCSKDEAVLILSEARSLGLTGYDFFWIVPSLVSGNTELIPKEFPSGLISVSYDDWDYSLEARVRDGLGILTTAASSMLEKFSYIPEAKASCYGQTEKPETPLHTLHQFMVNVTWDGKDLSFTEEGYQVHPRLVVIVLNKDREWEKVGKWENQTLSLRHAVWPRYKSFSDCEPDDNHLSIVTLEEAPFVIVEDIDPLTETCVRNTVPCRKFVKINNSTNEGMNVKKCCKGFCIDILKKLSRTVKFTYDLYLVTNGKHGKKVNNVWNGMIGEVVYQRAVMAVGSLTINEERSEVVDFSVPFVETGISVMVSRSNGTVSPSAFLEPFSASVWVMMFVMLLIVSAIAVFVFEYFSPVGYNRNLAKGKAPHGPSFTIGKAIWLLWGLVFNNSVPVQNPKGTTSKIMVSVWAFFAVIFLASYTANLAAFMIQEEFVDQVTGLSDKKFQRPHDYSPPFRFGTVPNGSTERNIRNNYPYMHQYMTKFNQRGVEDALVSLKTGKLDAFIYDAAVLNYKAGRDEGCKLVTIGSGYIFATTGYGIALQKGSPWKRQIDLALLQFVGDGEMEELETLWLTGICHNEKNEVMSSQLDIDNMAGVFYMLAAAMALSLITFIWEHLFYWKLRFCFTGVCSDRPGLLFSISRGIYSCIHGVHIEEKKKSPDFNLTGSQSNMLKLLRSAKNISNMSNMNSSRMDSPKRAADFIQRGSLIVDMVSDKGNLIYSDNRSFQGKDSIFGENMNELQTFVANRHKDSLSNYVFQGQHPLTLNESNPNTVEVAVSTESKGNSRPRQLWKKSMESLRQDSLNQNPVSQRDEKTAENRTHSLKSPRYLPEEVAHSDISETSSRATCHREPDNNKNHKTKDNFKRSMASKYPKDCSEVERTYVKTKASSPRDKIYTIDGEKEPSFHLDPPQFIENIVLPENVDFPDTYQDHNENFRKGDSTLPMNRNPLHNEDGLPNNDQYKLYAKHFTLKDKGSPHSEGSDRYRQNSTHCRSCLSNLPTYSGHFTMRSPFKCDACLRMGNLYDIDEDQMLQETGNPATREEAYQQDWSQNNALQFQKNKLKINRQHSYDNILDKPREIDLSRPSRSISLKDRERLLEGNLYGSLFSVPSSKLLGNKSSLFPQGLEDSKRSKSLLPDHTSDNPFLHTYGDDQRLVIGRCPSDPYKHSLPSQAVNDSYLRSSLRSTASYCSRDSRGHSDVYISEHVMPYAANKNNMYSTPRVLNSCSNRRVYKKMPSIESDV
Sequence of NMDARs in cerebellar granule cells, wild type mice (Q01098 20-1239, other chains not shown): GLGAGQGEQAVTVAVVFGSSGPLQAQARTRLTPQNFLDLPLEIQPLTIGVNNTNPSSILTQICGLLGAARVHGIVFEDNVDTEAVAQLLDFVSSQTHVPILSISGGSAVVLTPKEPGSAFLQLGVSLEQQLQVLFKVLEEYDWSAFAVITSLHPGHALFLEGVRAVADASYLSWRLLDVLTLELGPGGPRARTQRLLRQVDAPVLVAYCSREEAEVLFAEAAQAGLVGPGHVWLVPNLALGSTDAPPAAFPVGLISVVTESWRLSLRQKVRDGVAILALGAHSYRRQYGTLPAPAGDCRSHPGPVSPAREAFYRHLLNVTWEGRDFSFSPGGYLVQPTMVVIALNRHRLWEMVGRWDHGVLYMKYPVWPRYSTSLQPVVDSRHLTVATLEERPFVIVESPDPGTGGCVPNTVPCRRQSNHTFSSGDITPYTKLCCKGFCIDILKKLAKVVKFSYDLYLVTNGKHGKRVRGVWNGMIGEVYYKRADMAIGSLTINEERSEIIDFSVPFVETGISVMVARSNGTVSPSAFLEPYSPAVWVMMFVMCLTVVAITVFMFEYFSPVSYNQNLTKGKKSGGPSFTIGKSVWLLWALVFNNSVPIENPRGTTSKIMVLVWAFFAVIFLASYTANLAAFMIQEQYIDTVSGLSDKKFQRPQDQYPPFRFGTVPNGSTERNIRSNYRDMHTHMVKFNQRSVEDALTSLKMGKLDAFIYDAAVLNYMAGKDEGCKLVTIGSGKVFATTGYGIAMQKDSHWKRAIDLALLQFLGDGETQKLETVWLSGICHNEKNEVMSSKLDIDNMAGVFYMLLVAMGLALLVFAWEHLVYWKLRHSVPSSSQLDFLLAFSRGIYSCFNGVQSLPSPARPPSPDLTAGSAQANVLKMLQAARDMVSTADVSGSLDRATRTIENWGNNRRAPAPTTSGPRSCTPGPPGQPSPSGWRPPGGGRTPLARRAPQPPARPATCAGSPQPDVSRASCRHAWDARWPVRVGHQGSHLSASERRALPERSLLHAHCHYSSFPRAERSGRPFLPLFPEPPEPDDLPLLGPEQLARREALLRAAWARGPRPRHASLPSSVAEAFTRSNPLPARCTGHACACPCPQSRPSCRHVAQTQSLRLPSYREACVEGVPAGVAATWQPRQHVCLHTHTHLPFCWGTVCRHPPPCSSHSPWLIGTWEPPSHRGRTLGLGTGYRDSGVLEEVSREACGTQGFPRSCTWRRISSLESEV

[5] = tested on: NMDARs in cultured cortical neurons transfected with GFP alone (control); format: cell-based, rat
[6] = tested on: NMDARs in cultured cortical neurons transfected with GluN2C and GFP; format: cell-based, rat
[7] = target: NMDARs in cerebellar granule cells, Grin2A−/− mice (Mus musculus, UniProt P35438+Q01098); format: cell-based; conditions: 50 μM PYD-106, Grin2A−/− slices, n=8 animals
Sequence of NMDARs in cerebellar granule cells, Grin2A−/− mice (Q01098 20-1239, other chains not shown): as above

[8] = target: NMDARs in cerebellar granule cells, Grin2C−/− mice (Mus musculus, UniProt P35436+P35438); format: cell-based; conditions: 50 μM PYD-106, Grin2C−/− slices, n=8 animals
[9] = tested on: GluN1/GluN2B/GluN2C receptors; test: Two-electrode voltage-clamp recordings in Xenopus oocytes; format: cell-based, rat; conditions: Figure S1

Compound: N[C@@H](CCC(=O)O)C(=O)O [Glutamate]
- time constant for glutamate deactivation (τ) (GluN1/GluN2A): 81 ± 8 ms
- time constant for glutamate deactivation (τ) (GluN1/GluN2C): 477 ± 40 ms

Compound: NC(CCCP(=O)(O)O)C(=O)O (racemic) [DL-APV, D,L-2-amino-5-phosphonovalerate]
- current response, % of control [1]: 3.4±0.7%

Compound: [Zn+2] [Zn^2+]
- GluN2AC1/GluN2CC2(NK) fitted response in saturating Zn2+ as percent of control ([3]; pH 6.8, 0.1 mM Mg2+): 27±1.6 ^c %
- GluN2AC1/GluN2CC2(NK) fitted response in saturating Zn2+ as percent of control ([3]; pH 7.3, 0.1 mM Mg2+): 57±0.4 ^c %
- IC50 ([3]; pH 6.8, 0.1 mM Mg2+): 19 nM
- IC50 ([3]; pH 7.3, 0.1 mM Mg2+): 45 nM
- GluN2AC1/GluN2AC2 fitted response in saturating Zn2+ as percent of control (GluN1/GluN2AC1/GluN2AC2; pH 6.8, mean ± SEM): 21±1.7 ^c %
- GluN2AC1/GluN2AC2 fitted response in saturating Zn2+ as percent of control (GluN1/GluN2AC1/GluN2AC2; pH 7.3, mean ± SEM): 57±2.0 ^c %

Now from value to molecule, other results behind:

- NMDAR current, % of baseline responses [2]: 142±7.2%
Compound: NCCCNCCCCNCCCN [Spermine]

- granule cell response to pressure-applied NMDA, % of DCS ([4]; 20 μM CIQ, 30 μM DCS, wild type mice, n=6 animals): 141±6.7%
Compound: COc1ccc(OCC2c3cc(OC)c(OC)cc3CCN2C(=O)c2cccc(Cl)c2)cc1 (stereo not shown) [CIQ]
- NMDAR-mediated current, % of baseline ([5]; 20 μM CIQ, control (GFP) cortical neurons, n=4): 96±4.6%
- NMDAR-mediated current, % of control ([6]; 20 μM CIQ, GluN2C-transfected neurons, n=5): 145±9.4%
- NMDAR current response in the presence of ifenprodil, % of baseline ([6]; CIQ, 3 μM ifenprodil, GluN2C-transfected neurons, n=4): 131±5%

- granule cell response to pressure-applied NMDA, % of DCS alone ([4]; 50 μM PYD-106, continuous 30 μM DCS, wild type mice, n=8 animals): 84±3.8%
- effect on NMDA responses with glycine as the co-agonist ([4]; wild type granule cells, n=3 animals, data not shown): no effect
- granule cell response to pressure-applied NMDA and glycine, % of control [7]: 164±17%
- granule cell response, % of control [8]: 90±7%
- sensitivity to PYD-106 [9]: insensitive
Compound: COC(=O)c1ccc(C2C(C(C)=O)=C(O)C(=O)N2CCc2c(C)[nH]c3ccccc23)cc1 (stereo not shown) [PYD-106]
- NMDAR current response, % of control ([5]; 50 μM PYD-106, GFP control neurons, n=5): 83±0.6%
- NMDAR current response in the presence of ifenprodil, % of baseline ([6]; 50 μM PYD-106, 3 μM ifenprodil, GluN2C-transfected neurons, n=5): 72±6%
- NMDAR current response, % of control ([6]; 50 μM PYD-106, GluN2C-transfected neurons, n=5): 89±1.6%
